Experimental data reported in US11826429B2, “Pharmaceutical composition comprising brinzolamide” (SENTISS PHARMA PRIVATE LIMITED, priority 2014, dated 2023).
≈ marks a conversion by molar mass, not a printed value.

Assays:
[1] = Solubility studies (supernatant filtered through 0.45 syringe filter and analysed); format: physicochemical; details: for Solubility % w/v, No Further addition to the ingredients of Column 2: autoclaved 121° C./30 min, cooled; for Solubility % w/v, Polysorbate 80 (1%) in addition to the composition of Column 2: plus Polysorbate 80 (1%)
Protocol: (§1) Purified water was taken in Schott bottle. Brinzolamide was added with continuous stirring. After 30 min its pH was adjusted to 6. It was stirred for 24 hours. After which, the supernatant was filtered with 0.45 µm syringe filter and then its solubility was determined.
as §1, with “6 and was autoclaved at 121° C./30 min. After autoclaving the sample was cooled to room temperature.” for “6.”
Purified water is taken in Schott bottle. Soluplus® is added to it while stirring for 10-15 min. Polysorbate 80 is added to it while stirring for 10-20 min. After it has dissolved completely Brinzolamide is added with continuous stirring. After 30 min pH is checked and adjusted to 6 with 0.1 N NaOH. It is autoclaved at 121° C./30 min. After autoclaving the formulation is cooled to room temperature with stirring.
In order to determine the solubility the sample was centrifuged at 3500 rpm for 5 min followed by filtration through 0.45 µm syringe filter and analysis.

[2] = pH 6.25; cited from earlier work

Solubility when API is autoclaved and cooled ([1]; pH 6.0): 0.082%
Solubility % w/v, No Further addition to the ingredients of Column 2 ([1]; pH 6): 0.085 % w/v
Solubility % w/v, No Further addition to the ingredients of Column 2 ([1]; pH 6, listed as Autoclaved API): 0.0822 % w/v
Solubility % w/v, PEG 400 (5%) in addition to the composition of Column 2 ([1]; pH 6, autoclaved, plus PEG 400 (5%)): 0.0668 % w/v
Solubility % w/v, Polysorbate 80 (1%) in addition to the composition of Column 2 ([1]; pH 6, autoclaved): 0.2 % w/v
Solubility % w/v, Polysorbate 80 (1%) in addition to the composition of Column 2 ([1]; pH 6, autoclaved, listed as Autoclaved API): 0.2089 % w/v
solubility thermodynamic at 24 h ([1]; purified water, pH adjusted to 6, aqueous buffer, thermodynamic from solid, pH 6.0, not autoclaved, stirred 24 hours, read-out: Solubility determined in the lab): 545 µg/mL (≈ 1420 µM)
SMILES: CCN[C@H]1CN(CCCOC)S(=O)(=O)c2sc(S(N)(=O)=O)cc21 [brinzolamide, (R)-(+)-4-ethylamino-2-(3-methoxypropyl)-3,4-dihydro-2H-thieno[3,2-e]-1,2-thiazine-6-sulfonamide-1,1-dioxide]
Solubility as per literature [2]: 0.059 % w/v
